Measurements: US4837239A, “Cardiotonic phosphodiesterase inhibitors complexed with water soluble vitamins” (Syntex (U.S.A.) Inc., priority 1986, dated 1989)
≈ marks a conversion by molar mass, not a printed value.

Legend:
Assay type in all cases: physicochemical
[1] = Water solubility (phase solubility experiments) with and without water-soluble vitamin; details: for solubility: pH 2, read-out: water solubility (free base equivalent)
Description: (§1) The present inventors have discovered that the compounds of Formula (I) form water-soluble complexes with water-soluble vitamins such as ascorbic acid, nicotinamide thiamine and pyridoxine. The phenomenon of complex formation can be confirmed by phase solubility experiments (FIGS. 1 and 2), and by spectral shifts and changes in electrochemical responses of the vitamins in the presence of these compounds (FIGS. 4a and 4b). For example, FIGS. 4a and 4b show the results of a titration of excess ascorbic acid with the hydrogen sulfate salt of N-cyclohexyl-N-methyl-4-(2-oxo-1,2,3,5-tetrahydroimidazo-[2,1-b]quinazolin-7-yl)oxybutyramide. It is hypothesized that the relatively planar tricyclic structure of the compound and the presence of non-bonding electrons on ring heteroatoms renders the compound capable of charge donation to suitable acceptors. In addition, the compound may also function as a charge acceptor due to the presence of a formal positive charge on a ring nitrogen at low pH (i.e., due to the presence of the planar cyclic cationic portion of the compound). Thus, the interaction with the water-soluble vitamin may be defined in terms of the existence of a charge transfer complex, resulting in enhanced water-solubility. […] The decrease in current is due to a lower diffusion coefficient of the complex.
(§2) The improvement in solubility in the presence of water-solublevitamins is specifically illustrated by FIGS. 1 and 2. […] The solubility is still further enhanced by the lyophilization process of the present invention. For example, if the lyophilization procedure described below is followed, N-cyclohexyl-N-methyl-4-(2-oxo-1,2,3,5-tetrahydroimidazo-[2,1-b]quinazolin-7-yl)oxybutyramide is water-soluble to the extent of about 5,000 μg/ml at pH2 using 10% ascorbic acid (See FIG. 5).

[2] = Water solubility after complexation with ascorbic acid and lyophilization
Procedure: as §2
6.5 grams of the sulfate salt of N-cyclohexyl-N-methyl-4-(2-oxo-1,2,3,5-tetrahydroimidazo[2,1-b]quinazolin- 7-yl)oxyburyamide were dissolved, along with 100 grams of ascorbic acid, 500 ml of tert-butyl alcohol, sufficient sulfuric acid to adjust the pH to 2.0, and sufficient water to bring the volume to 1 liter. The solution was stirred at room temperature for about 10 minutes and filtered with a 0.22 micron Milipore™ cellulose filter. 5 Milliliters of the solution were then dispensed into a 10 ml vial for lyophilization. In the lyophilization procedure, the condenser temperature was initially set to give a shelf temperature of -60° C., and the pressure was initially atmospheric. After the product had frozen, the pressure was gradually dropped to 10 milliTorr, and the vacuum was held for about a day. […]

[3] = Solution-phase stability / shelf life (kinetic studies)
Description: A significant advantage of the lyophilization procedure of the present invention is that it provides for an extended shelf life as compared to that of the class of ocyalkylamides or even their vitamin complexes in solution. For example, the shelf life of a solution of the ascorbic acid complex of N-cyclohexyl-N-methyl-4-(2-oxo-1,2,3,5-tetrahydro-imidazo-[2,1-b]quinazolin-7-yl) oxybutyramide is only about 5 days. The lyophilized product prepared according to the formulation method of the present invention can be expected to permit a shelf life of at least two years.
The reason for the generally brief shelf lives in solution is that the class of oxyalkylamides has limited solution-phase stability. […] At pH 2, at which the compound is formulated, shelf life (T90) is less than a week. In a concentrated form in neat dimethylacetamide, polyethylene glycol or the like, the T90 is only about three weeks.

[4] = Solid state stability in lyophilized powders at accelerated temperature and various states of humidity; details: for Appearance (Color): after 7 days
Procedure: Accordingly, in order to maximize the stability of such a compound for parenteral administration therapy, the present inventors have developed a lyophilization procedure. The lyophilization substantially removes water: the primary nucleophile responsible for the degradative hydrolysis of the compound in solution.
^a Made from 2 mL of tBuOH/AA/H2 O (50/10/40) with pH = 2.0 and
N--cyclohexylN--methyl4-(2-oxo-1,2,3,5-tetrahydroimidazo-2,1-bquinazolin-
-yl)oxybutyramide 130 mL
^b Capped means: not stored in the desiccator with the vial sealed.
47% RH capped and 47% RH holes mean: stored in a 47% relatively humidity
desiccator with the vial capped or covered with aluminum foil with 4 hole
in the foil respectively.
6.5 grams of the sulfate salt of N-cyclohexyl-N-methyl-4-(2-oxo-1,2,3,5-tetrahydroimidazo[2,1-b]quinazolin- 7-yl)oxyburyamide were dissolved, along with 100 grams of ascorbic acid, 500 ml of tert-butyl alcohol, sufficient sulfuric acid to adjust the pH to 2.0, and sufficient water to bring the volume to 1 liter. The solution was stirred at room temperature for about 10 minutes and filtered with a 0.22 micron Milipore™ cellulose filter. 5 Milliliters of the solution were then dispensed into a 10 ml vial for lyophilization. In the lyophilization procedure, the condenser temperature was initially set to give a shelf temperature of -60° C., and the pressure was initially atmospheric. After the product had frozen, the pressure was gradually dropped to 10 milliTorr, and the vacuum was held for about a day. Still under vacuum, the shelf temperature was slowly raised by incrementally increasing the temperature to the following values for about 6 hours at each value: -40° C., -20° C.; -10° C.; 0° C.; and 15°-25° C. During this lyophilization process, all the butanol and water were removed. The final lyophilized powder comprised 32.5 milligrams of N-cyclohexyl-N-methyl-4-(2-oxo-1,2,3,5-tetrahydroimidazo-[2,1-b]quinazolin-7-yl)oxybutyramide sulfate salt and 500 milligrams of ascorbic acid, some residual water (4% w/w) and tert-butyl alcohol (3% w/w) per vial.

[5] = Electrochemical titration of excess ascorbic acid with the drug (FIGS. 4a and 4b); details: titration of excess ascorbic acid with hydrogen sulfate salt, in solution
Description: as §1

[6] = 40 °C., 47% RH capped (first line)
[7] = 40 °C., 47% RH capped (second line)

Structure (SMILES): CN(C(=O)CCCOc1ccc2c(c1)CN1CC(=O)NC1=N2)C1CCCCC1 [N-cyclohexyl-N-methyl-4-(2-oxo-1,2,3,5-tetrahydroimidazo-[2,1-b]quinazolin-7-yl)oxybutyramide]
- water solubility ([1]; in the presence of water soluble vitamins, and ethanol and propylene glycol (FIG. 2)): improved water solubility
- water solubility ([1]; in the presence of water-soluble vitamins (FIG. 1)): improved water solubility
- solubility ([1]; pH2, absence of water-soluble vitamin): ~120 µg/mL
- solubility ([1]; water with 10% ascorbic acid, pH2, in the presence of 10% (about 0.6M) ascorbic acid): ~420 µg/mL
- solubility ([2]; complexation with a water soluble vitamin and lyophilization (FIG. 5)): enhancement of solubility
- solubility ([2]; pH 2, pH2, 10% ascorbic acid, lyophilized (FIG. 5), read-out: water solubility after lyophilization procedure): ~5000 µg/mL (≈ 13 mM)
- T90 ([3]; concentrated form in neat dimethylacetamide, polyethylene glycol or the like): about three
- pH of maximum stability ([3]; in solution): ~6
- estimation shelf life in solution ([3]; in solution, about pH 6): six
- shelf life (T90) ([3]; in solution, pH 2): less than a week
- degradation catalysis ([3]; kinetic studies in solution): both acid and base catalyzed
- % Remaining, 7 days ([4]; 5 °C., Capped): 99.2%
- Appearance (Color) ([4]; 5 °C., Capped): White
- % Remaining, 7 days ([4]; 25 °C., 47% RH capped): 100%
- % Remaining, 36 days ([4]; 25 °C., 47% RH capped): 100%
- Appearance (Color) ([4]; 25 °C., 47% RH capped): White
- % Remaining, 7 days ([4]; 25 °C., Capped): 100%
- % Remaining, 36 days ([4]; 25 °C., Capped): 99.7%
- Appearance (Color) ([4]; 25 °C., Capped): White
- % Remaining, 7 days [4, 6]: 100%
- % Remaining, 36 days [4, 6]: 96.7%
- Appearance (Color) [4, 6]: Light yellow
- % Remaining, 5 days ([4]; 40 °C., 47% RH capped (second line), 5 days): 99.2%
- % Remaining, 7 days [4, 7]: 99.2%
- % Remaining, 36 days [4, 7]: 94.5%
- Appearance (Color) [4, 7]: Light yellow
- % Remaining, 7 days ([4]; 40 °C., Capped): 100%
- % Remaining, 36 days ([4]; 40 °C., Capped): 94.4%
- Appearance (Color) ([4]; 40 °C., Capped): Light yellow
- % Remaining, 7 days ([4]; RT, 47% RH holes): 100%
- % Remaining, 36 days ([4]; RT, 47% RH holes): 100%
- Appearance (Color) ([4]; RT, 47% RH holes): White
- electrochemical response of ascorbic acid [5]: a shift in the peak potential and a reduction of the peak current of ascorbic acid
